According to patent US11203015B2, “Microfluidic device” (TECHNISCHE UNIVERSITAT WIEN, priority 2016, dated 2021):

Test system: human umbilical vain endothelial cells (HUVECs)
Test: microfluidic wound healing assay (membrane deflection, cell depletion)
Assay type: cell-based
Protocol: Lentivirally transduced GFP HUVEC (human umbilical vain endothelial cells) were obtained from Olaf pharmaceuticals (USA) and cultivated in gelatin coated 25 cm^2 cell culture flasks and maintained in EGM-2 (Lonza, CC3156) supplemented with EGM-2 SingleQuots (Lonza, CC4176). The coating was performed using 1% gelatin solution (9000-70-8, Sigma Aldrich) in DPBS and was incubated for 30 min at 37° C. For on chip experiments the medium was supplemented with 1% hepes buffer (J848, AMRESCO). For the coating experiment 500 mM NaOH was inserted to the microfluidic channels, incubated for 15 min at RT, following rinsing with PBS and a protein mixture comprising 10 μg/m fibronectin (Sigma Aldrich, F4759) and […] fibrinogen conjugated with Alexa Fluor 488 (Thermo Fisher, F13191) was incubated for 1 h at 37° C.
The microfluidic device of example 1 was placed on a heating plate equipped with a temperature controller. The temperature of the plate was adjusted to reach 37° C. on top of the microdevice. For the on-chip wound healing assays the microchip was first sterilized using 70% ethanol, rinsed using a 1 M NaOH solution for 15 min and washed with PBS prior coating using a 1% gelatin solution for 1 h. Cell suspension of desired concentration was prepared and inserted into microchannels using plastic syringe (1 ml). Cells were allowed to adhere for 1 h in the absence of fluid flow followed by a constant medium perfusion of 4 μl/min using syringe pump. As soon as the cells were grown confluent (typically 1 to 2 days) cells were mechanically damaged (“squeezed”) by the PDMS membrane, which bended under force towards the cell layer. Bending was induced by manual increase of pressure load to 150 kPa (differential pressure) followed by immediate release to 0 kPa using a pressure controller. To further remove residual cell debris from the substrate multiple membrane deflections (minimum of three times) were performed. During the mechanical damaging the medium perfusion was always kept on.
The fluorescence pictures were transformed to grey scale, the contrast increased and the leading edge of the wound selected using the Magic wand tool. This image was then processed using Image) by determining the cell-free area with the tool Analyze Particles.
Next the ability to create defined and reproducible cell depletion zones within a confluent cell monolayer was evaluated using the membrane deflection method. In a series of experiments endothelial cells were seeded and cultivated in a microfluidic channel for a minimum period of 6 hours prior cell removal. During the entire wound healing assay including the cell depletion procedure the applied flow rate of 3 μl/min was kept constant to ensure complete removal of cell debris following membrane compression. In addition to maintaining an intact coating, a further aspect that may also influence cell migration is associated with the release of biochemical factors from viable but injured cells at the edge of the wounding area. To investigate whether cells located in the adjacent vicinity of the cell-free area are injured by membrane compression, dead staining using ethidium homodimer-1 was conducted in subsequent experiments. Results indicated the presence of red fluorescently labelled DNA debris present in the cell-free area following 1 h after wound induction. More importantly, none of the leading edge cells appeared damaged by the membrane compression, since only DNA from lysed cells inside the wound remained on the substrate. […]

[1] = 10 μg/ml Mitomycin-C, one hour exposure, flow rate 3 μl/min, after 6 h

## CO[C@@]12[C@H](COC(N)=O)C3=C(C(=O)C(C)=C(N)C3=O)N1C[C@@H]1N[C@@H]12 [Mitomycin-C]
10 μg/ml Mitomycin-C, one hour exposure
  wound closure observed after: 24 h
[1]
  cell-free area, times larger compared to TNF-α treated cells: 1.5
  cell-free area, times larger compared to control experiments: 5
10 μg/ml Mitomycin-C, after 24 h, compared to control
  cell density within the wounded area: visibly reduced

## TNF-α
1 ng/ml TNF-α in medium immediately after wound induction and maintained, 6 h post wounding
  remaining cell-free area, factor larger than control experiments: 3.3
